Results as given in patent US20090031455A1 (priority 2004, published 2009).

How the values were obtained:
recombinant FaPINH = test: recombinant enzyme activity assay with yeast microsomes, GC-MS; conditions: for hydroxylation of alternative substrates by PINH: position analogous to α-pinene C10 (C7), FIGS. 3-4
Description: Microsome preparations were evaluated by CO-difference spectrum and were assayed for (−)-α-pinene hydroxylation. The reaction mixture for the recombinant enzyme activity assay, in a final volume of 1 ml, contained 50 mM Tris-HCl pH 7.4, 1 mM EDTA, 0.1 mM DTT, 0.8 units glucose-6-phosphate dehydrogenase, 2 mM glucose 6-phosphate, 5 μM FAD, 5 μM FMN, 1 mM NADPH, and 200 μL of microsomal preparation. 200 nmol (−)-α-pinene (in less than 10 μl, which has no detectable influence on the reaction) were added to the mixture to start the reaction, which was allowed to proceed for 2 hours at 30° C. with gentle shaking. Microsomes isolated from cells harboring the empty vector were employed as controls. The reaction was stopped by chilling the mixture on ice and extracting twice with 1.0-mL portions of pentane:diethyl ether (4:1). The combined extract was passed through a short column of silica gel and anhydrous MgSO4, after which the column was washed with 1.5 mL diethyl ether to remove residual compounds. After concentration under N2, the samples were analyzed by GC-MS. Samples (2 μL) were analyzed by an automated injector on a Hewlett-Packard 5890 series II gas chromatograph equipped with a 30 m×0.25 mm inner diameter fused silica column coated with a 0.25 μm film of HP 5MS (Hewlett-Packard), and a Hewlett-Packard 5972A Mass Selective Detector. GC oven temperature was programmed at an initial temperature of 45° C. for 1 min, with a ramp of 10° C. min-1 to 280° C., and a final time of 10 min. Full spectra were recorded for major reaction products, which were identified by comparing retention times with authentic standards and by comparing spectra with those of the NSB75K library, using the G1033A NIST probability based matching algorithm.

plant pathogens = format: cell-based; conditions: for antimicrobial effect compared with geraniol: data not shown; for antimicrobial effect compared with perilla alcohol: FIGS. 7-8
Phytophthora infestans [1] = format: cell-based; conditions: P. infestans; for inhibition of spore germination: FIG. 7
Botrytis elliptica [2] = format: cell-based
Botrytis elliptica [3] = format: cell-based; remark: listed apart in the source
Phytophthora infestans [4] = format: cell-based; conditions: P. infestans; for inhibition of mycelial growth: FIG. 8
Pythium aphanidermatum = format: cell-based
[5] = tested on: PINH expressed in Saccharomyces cerevisiae; test: in vivo bioconversion assay with intact transgenic yeast cells expressing PINH; conditions: 500 μM (−)-α-pinene, 2 h at 30° C.
Description: Transformants were selected on SGI medium, while expression was carried out in YPL medium (induction with 2% galactose) (Pompon et al., 1996). Intact cells were harvested and used for an in vivo assay, by incubation in 50 mM Tris-HCl buffer (pH 7.4) containing 0.1 mM DTT and 1 mM EDTA in the presence of 500 μM (−)-α-pinene. The reaction was allowed to proceed for 2 h at 30° C. with gentle shaking. Controls containing no substrate, and cells containing vector without insert, were also used for in vivo assays. The assays were extracted and analysed using GC-MS as described under Example 3.

Compound: CC1=CC[C@H]2C[C@@H]1C2(C)C [(−)-α-pinene]
- substrate preference between enantiomers (recombinant FaPINH; (−)- versus (+)-α-pinene): preferred to (+)-α-pinene

Compound: CC(C)=CCCC(C)=CC=O [citral]
- antimicrobial effect compared with geraniol (plant pathogens): more effective than geraniol

Compound: CC(C)=CCC/C(C)=C/C(=O)O [geranic acid]
- antimicrobial effect compared with geraniol (plant pathogens): more effective than geraniol

Compound: C=C(C)[C@H]1CC=C(C)CC1 [limonene]
- hydroxylation of alternative substrates by PINH (recombinant FaPINH): efficiently hydroxylated

Compound: CC1(C)C2CC=C(CO)C1C2 (stereo not shown) [myrtenol]
- inhibition of spore germination (Phytophthora infestans [1]): effective inhibitors
- inhibition of spore germination (Botrytis elliptica [2]): effective inhibitors
- effectiveness against mycelial growth compared with linalool (Botrytis elliptica [3]): slightly more effective than linalool
- inhibition of mycelial growth (Botrytis elliptica [3]): effectively inhibited
- effectiveness against mycelial growth compared with linalool (Phytophthora infestans [4]): more effective than linalool
- inhibition of mycelial growth (Phytophthora infestans [4]): effectively inhibited
- effectiveness against mycelial growth compared with linalool (Pythium aphanidermatum): less effective than linalool
- inhibition of mycelial growth (Pythium aphanidermatum): effectively inhibited

Compound: Cc1ccc(C(C)C)cc1 [p-cymene]
- hydroxylation of alternative substrates by PINH (recombinant FaPINH): hydroxylated at C7

Compound: C=C(C)[C@@H]1CC=C(CO)CC1 [perilla alcohol]
- inhibition of spore germination (Phytophthora infestans [1]): effective inhibitors
- effectiveness against spore germination relative to linalool and myrtenol (Botrytis elliptica [2]): about 2 fold
- inhibition of spore germination (Botrytis elliptica [2]): effective inhibitors
- effectiveness against mycelial growth compared with linalool (Botrytis elliptica [3]): slightly more effective than linalool
- inhibition of mycelial growth (Botrytis elliptica [3]): effectively inhibited
- effectiveness against mycelial growth compared with linalool (Phytophthora infestans [4]): more effective than linalool
- inhibition of mycelial growth (Phytophthora infestans [4]): effectively inhibited
- effectiveness against mycelial growth compared with linalool (Pythium aphanidermatum): more effective
- inhibition of mycelial growth (Pythium aphanidermatum): effectively inhibited

Compound: C=C(C)C1CC=C(C=O)CC1 (stereo not shown) [perilla aldehyde]
- inhibition of spore germination (Phytophthora infestans [1]): effective inhibitors
- effectiveness against spore germination relative to linalool (Phytophthora infestans [1]; FIG. 7A, more effective than linalool): about 10 fold
- effect on spore germination at the concentration tested (Botrytis elliptica [2]): completely blocks germination
- inhibition of spore germination (Botrytis elliptica [2]): effective inhibitors
- effectiveness against mycelial growth compared with linalool (Botrytis elliptica [3]): slightly more effective than linalool
- inhibition of mycelial growth (Botrytis elliptica [3]): effectively inhibited
- effectiveness against mycelial growth compared with linalool (Phytophthora infestans [4]): more effective than linalool
- inhibition of mycelial growth (Phytophthora infestans [4]): effectively inhibited
- effectiveness against mycelial growth relative to linalool (Phytophthora infestans [4]; more effective than linalool): 4-5 fold
- effectiveness against mycelial growth compared with linalool (Pythium aphanidermatum): more effective
- inhibition of mycelial growth (Pythium aphanidermatum): effectively inhibited
- antimicrobial effect compared with perilla alcohol (plant pathogens): more effective than perilla alcohol

Compound: C=C(C)[C@@H]1CC=C(C(=O)O)CC1 [perillic acid]
- antimicrobial effect compared with perilla alcohol (plant pathogens): more effective than perilla alcohol

Compound: CC1=CC[C@H](C(C)C)C=C1 [α-phellandrene]
- hydroxylation of alternative substrates by PINH (recombinant FaPINH): hydroxylated at the same position

Compound: CC1=CCC2CC1C2(C)C (stereo not drawn) [α-pinene]
- substrate hydroxylated at C-10 to form myrtenol (recombinant FaPINH; microsomes from FaPINH expressing yeast, 2 hours at 30° C.): over 50%
- conversion into myrtenol by intact yeast cells [5]: efficiently converted

Compound: CC1=CC=C(C(C)C)CC1 [α-terpinene]
- hydroxylation of alternative substrates by PINH (recombinant FaPINH): hydroxylated at the same position

Compound: CC1=CCC(=C(C)C)CC1 [α-terpinolene]
- hydroxylation of alternative substrates by PINH (recombinant FaPINH): hydroxylated at the same position
